# Laboratory results reported in article PMC11267363, “Supramolecular Nanofibers Ameliorate Bleomycin‐Induced Pulmonary Fibrosis by Restoring Autophagy” (Advanced Science, 2024).
# Ends that are not written are not given here.
# How the values were obtained:
# [1] = target: bovine serum albumin (BSA) (Bos taurus, UniProt P02769); assay: Microscale thermophoresis (MST) binding to BSA (negative control protein); conditions: BSA as negative control
# Protocol: To determine the effects of the self‐assembly factor “Ac‐GFFY” on the secondary structure of the A2 peptide fragment, Circular dichroism (CD) and Fourier transform infrared (FTIR) measurements were performed. […] We subsequently assessed the binding affinity between Ac‐GFFY‐A2 or A2 peptides to the human TRB3 protein or bovine serum albumin (BSA) using microscale thermophoresis (MST) assay, with BSA serving as the control group. […] Therefore, we labeled the peptide with the fluorescence group 7‐nitro‐1,2,3‐benzoxadiazole (NBD) to determine the cellular uptake via flow cytometer. The NBD‐labeled peptide was incubated with both of normal and activated MRC‐5 cells for 4 h, respectively. […] Collectively, under the action of supramolecular self‐assembly, the peptide assemblies with stable secondary conformation can not only be effectively absorbed by MRC‐5 cells but also have the potential to interfere with TRB3/p62 PPIs.
# HR‐MS (Varian QFT‐ESI) was used to characterize the molecular weight of compounds. TEM (JEM100CXII) was performed at the Tecnai G2 F20 system, operating at 100 kV. Circular dichroism (CD) spectrum was obtained by a BioLogic (MOS‐450) system. Dynamic light scattering was measured by a ZETAPALS/BI‐200SM (BROOKHAVEN) system. Confocal laser scanning microscopy (CLSM) was measured by Leica TCS SP‐5. Flow cytometry (BD, FACS) was used to detect the cellular uptake. […]
# TRB3/p62 PPIs = target: T1, TRB3/p62 PPIs (Homo sapiens, UniProt Q96RU7); assay: Co-immunoprecipitation and CLSM co-localization of TRB3/p62 in activated MRC-5 cells; type: cell-based; conditions: TGF-β1 10 ng/mL, peptide 50 µM, 24 h
# T1 construct: endogenous in cells
# T1 sequence (Q96RU7 1-358): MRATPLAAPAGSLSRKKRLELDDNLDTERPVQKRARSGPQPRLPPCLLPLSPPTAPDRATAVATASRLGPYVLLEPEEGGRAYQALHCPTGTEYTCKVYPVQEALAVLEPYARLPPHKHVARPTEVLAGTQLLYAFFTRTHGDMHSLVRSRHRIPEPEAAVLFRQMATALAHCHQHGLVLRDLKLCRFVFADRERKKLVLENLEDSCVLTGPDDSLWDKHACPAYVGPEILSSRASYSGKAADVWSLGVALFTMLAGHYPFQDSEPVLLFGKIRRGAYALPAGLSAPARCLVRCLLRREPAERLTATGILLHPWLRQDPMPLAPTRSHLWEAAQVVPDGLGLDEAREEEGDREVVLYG
# Protocol: The MRC‐5 cells were seeded on the CLSM dish at a density of 6 × 10^4 cells. After adherence, the solution containing TGF‐β1 (10 ng mL^−1), saline plus TGF‐β1 (10 ng mL^−1), A2 (50 µM) plus TGF‐β1 (10 ng mL^−1), Ac‐GFFY‐A2 (50 µM) TGF‐β1 (10 ng mL^−1), was added to incubate cells for 24 h, respectively. Then, the medium was removed and the cells were washed with cold PBS three times. The cells were fixed with 4% of Paraformaldehyde for 10 min at room temperature. Then, the solution was sucked away, and washed by cold PBS three times for a min each time. 0.1% Triton X‐100 solution was used to disrupt the cell membrane structure. […]
# Total proteins were exacted from cells or tissues with RIPA lysis buffer (Beyotime Biotecnology). The protein concentration was measured using BCA Protein Assay Kit (Thermo Scientific). […] The protein transferred PVDF membranes were incubated with following primary antibodies at 4°C overnight: Then the membranes were incubated with horseradish peroxidase (HRP)-conjugated secondary antibodies at room temperature for 1 h, and protein signals were detected using an enhanced chemiluminescence kit (Pierce). […] The co -precipitates were resolved using SDS–PAGE and detected with immunoblotting. […]
# Hydroxyproline content of right lung of each mouse was measured using a conventional hydroxyproline method as previously described.
# Chain of bovine serum albumin (BSA) (P02769 25-607): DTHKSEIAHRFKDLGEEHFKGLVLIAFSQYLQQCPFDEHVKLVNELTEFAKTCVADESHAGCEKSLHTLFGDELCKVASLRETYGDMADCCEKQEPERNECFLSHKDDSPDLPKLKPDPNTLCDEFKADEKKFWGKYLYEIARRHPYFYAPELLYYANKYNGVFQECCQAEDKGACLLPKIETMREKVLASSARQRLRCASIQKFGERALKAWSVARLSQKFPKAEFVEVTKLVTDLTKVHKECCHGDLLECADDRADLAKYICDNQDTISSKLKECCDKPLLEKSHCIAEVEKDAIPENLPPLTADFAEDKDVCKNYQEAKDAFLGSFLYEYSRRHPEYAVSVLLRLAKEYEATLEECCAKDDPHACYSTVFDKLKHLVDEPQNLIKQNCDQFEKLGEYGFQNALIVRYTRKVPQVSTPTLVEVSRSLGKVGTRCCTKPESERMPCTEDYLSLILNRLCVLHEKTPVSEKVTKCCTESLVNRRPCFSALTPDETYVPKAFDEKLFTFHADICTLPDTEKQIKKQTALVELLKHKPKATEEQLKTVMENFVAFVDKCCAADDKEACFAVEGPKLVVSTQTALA
Substance,binding with BSA [1],"disruption of TRB3/p62 PPIs (co-IP, co-localization) (TRB3/p62 PPIs)"
"GGWLTRLLQTK-OH [A2, reference compound]",no binding,minimal capacity to disrupt the TRB3/p62 PPIs
Ac-GFFYGGWLTRLLQTK-OH [Ac-GFFY-A2],no binding,successfully inhibited the TRB3/p62 PPIs
